As usually defined, the EC50 is the concentration at which the effect is half-maximal.

Where two headings read alike, the source gives them in different places.

The values below come from patent publication US20030027210A1, “Alpha synuclein aggregation assays” (priority 2001, published 2003).

For assay [1], the target named is alpha synuclein peptide 61-90 (SEQ.ID.No.:3) (Homo sapiens, UniProt P37840). Put plainly: Thioflavin T fluorescence disaggregation assay of aggregated alpha synuclein. It is filed as biochemical. The protocol: Prior to assay, concentrated alpha synuclein peptide 61-90 (SEQ.ID.No.:3) was diluted into assay buffer containing Thioflavin T (20 uM) such that a signal to noise of approximately 5 to 1 was achieved. Rifampicin was maintained in 8% DMSO at a concentration of 2 mM. To break up super aggregates, the solution was sonicated using a Heat System sonicator with a microprobe. The samples were sonicated in 30 ml volume in a Coming 50 ml centrifuge tube for 25, 3 second bursts. The assay was run in LJL HE (LJL Biosystems) plates as follows: 18 μl of alpha synuclein/thioflavin T mixture was added to the well followed by 2 μl of a 30% DMSO or by rifampicin diluted in 30% DMSO. As a control, buffer with thioflavin T was added to separate wells in the absence of alpha synuclein. The samples were incubated at room temperature for the times indicated in FIG. 1 and were then read on the LJL reader using wavelengths of 440 nm and 485 nm.
To test the effect of incubation times on disaggregation of alpha synuclein, alpha synuclein was incubated with a rifampicin concentration curve ranging from 0.1 μM to 100 μM for 2 and 5 hours. The data are the mean of 11 samples±the standard deviation at each time point.
The signal to background are from quadruplicate samples of buffer (low value) and alpha synuclein/TFT buffer (high value). The EC50 were generated from 11 samples of each time point.
To narrow down the incubation times as well as to identify the concentrations of rifampicin to use, the above study was repeated using incubation times ranging from 5 minutes to 2 hours and rifampicin concentrations of 1.56 μM to 15 μM.

The next assay concerns the target T1, alpha synuclein protein (Homo sapiens, UniProt P37840).
T1 construct: made in house; host or cells: E. coli ER2566
The assay is described as follows: Thioflavin T alpha-synuclein aggregation assay with or without seeding. It is filed as biochemical. The note with it: peptide used for seeding; Thioflavin T fluorescence. The protocol:
A fluorescence-based TFT high-throughput screening assay was developed for the a-synuclein aggregation. Thioflavin T absorbs at 450 nm and emits at 485 nm; fluorescence increases 40-fold in the presence of beta-sheet conformation (LeVine and Scholten). Thioflavin T was obtained from Fluka Chemika. Twenty four micrograms (24 μg) of alpha synuclein protein in assay buffer (0.2 M potassium chloride pH=6; 0.075% sodium azide) was added to microvolume multiwell plate holding 10 μL. Then, Thioflavin T (TFT) was added to each well to a final concentration of 20 μM and contents were thoroughly mixed. Alpha-synuclein was allowed to fully aggregated prior to conducting a dissaggregation assay. Degree of aggregation was measured by increase in Thioflavin T fluorescence. Alpha-synuclein aggregation was conducted with or without seeding (using a peptide to enhance the rate of aggregation).
Alpha synuclein aggregates through the formation of a beta sheet structure, measured by increased fluorescence of Thioflavin T at 485 nm.

For `CO[C@H]1/C=C/O[C@@]2(C)Oc3c(C)c(O)c4c(O)c(c(/C=N/N5CCN(C)CC5)c(O)c4c3C2=O)NC(=O)/C(C)=C\C=C\[C@H](C)[C@H](O)[C@@H](C)[C@@H](O)[C@@H](C)[C@H](OC(C)=O)[C@@H]1C` [Rifampicin], the EC50 is 311 µM in assay [1] (incubation time 15 minutes, rifampicin 1.56 μM to 15 μM, read-out: EC50 for Rifampicin to disaggregate alpha synuclein); 76 µM in assay [1] (incubation time 30 minutes, rifampicin 1.56 μM to 15 μM, read-out: EC50 for Rifampicin to disaggregate alpha synuclein); 16.8 µM in assay [1] (incubation time 60 minutes, rifampicin 1.56 μM to 15 μM, read-out: EC50 for Rifampicin to disaggregate alpha synuclein); 23.9 µM in assay [1] (incubation time 2 hours, rifampicin 0.1 μM to 100 μM, room temperature, read-out: Rifampicin EC50); 10.6 µM in assay [1] (incubation time 120 minutes, rifampicin 1.56 μM to 15 μM, read-out: EC50 for Rifampicin to disaggregate alpha synuclein); 21 µM in assay [1] (incubation time 5 hours, rifampicin 0.1 μM to 100 μM, room temperature, read-out: Rifampicin EC50).

For the compound “EQVTNVGGAVVTGVT [syn 61-75, synthetic peptide of residues 61 to 75 of human alpha synuclein, enhances rate of aggregation]”, in the assay with alpha synuclein protein, the “effect of seeding peptide on rate of synuclein aggregation” value is “speed up synuclein aggregation”.
